Structures can show the parent of a compound that is named as a salt.
Columns and labels:
[1] = test system: mouse bladder cancer cell line MB49; test: mouse orthotopic bladder cancer model; type: in vivo, C57 mice; conditions: compared to mice firstly treated with cell vesicles then administered with Dox or HCPT; bladder infusion; bladders taken on day 12; FIGS. 7A and 7B
Method: Mouse bladder cancer cells are cultured with 10% of FBS 1640 basal medium until logarithm phase, and are resuspended with PBS into cell suspension with a cell concentration of 10^7/mL after being digested with trypsin. After C57 mice were anesthetized, 100 uL 0.1 mg/mL of polylysin solution are infused into mouse bladder using intravenous indwelling needle for pre-treatment for 20 min, and then 100 uL cell suspension are infused into the bladder after the polylysin solution is excreted, and cell suspension is excreted after holding for 1 h.
Preparing the cell vesicles with chemotherapy drugs wrapped therein: 100 uL chemotherapy drug (Dox or HCPT) are administered to 1 ml 1×10^7 mouse bladder cancer cells (1 mg/mL); 48 hours after administration of chemotherapy drugs, firstly centrifuging cell culture medium that contains apoptotic tumor cells at the rotational speed of 1300 rpm, 5000 rpm, respectively, each for 10 minutes and collecting a first supernatant; then centrifuging the first supernatant at the centrifugal force of 14000 g for 1 minute to remove cells and debris, and collecting a second supernatant; further centrifuging the second supernatant at the centrifugal force of 14000 g for 1 hour, then collecting precipitate to obtain cell vesicles with chemotherapy drugs wrapped therein. […]

[2] = test system: human breast cancer cells MCF-7; test: uptake of doxorubicin drugs by MCF-7, two-photon confocal microscope; type: cell-based; conditions: 1 μg/ml doxorubicin hydrochloride for 4 hours, test group first incubated with cell vesicles for 12 hours, FIG. 3
Method: (§1) Cell vesicles derived from human breast cancer cell line MCF-7 are obtained in accordance with the method in Example 2;
(§2) 1×10^5 human breast cancer cells MCF-7, tumor repopulating cells MCF-7/TRC, human breast cancer doxorubicin hydrochloride drug resistant cells ADR/MCF-7 were planted in the confocal dish, respectively. Cell vesicles that prepared above and derived from human breast cancer cell lines MCF-7 are added to the dish containing the above three kinds of cells respectively, with amount of 5×10^5/dish, and incubated for 12 hours, used as a test group;
(§3) Human breast cancer cells MCF-7, tumor repopulating cells MCF-7/TRC, and human breast cancer doxorubicin hydrochloride drug resistant strains ADR/MCF-7 without addition of cell vesicles are used as a control group. […]

[3] = test system: human breast cancer doxorubicin hydrochloride drug resistant strains ADR/MCF-7; test: uptake of doxorubicin drugs by ADR/MCF-7, two-photon confocal microscope; type: cell-based; conditions: 1 μg/ml doxorubicin hydrochloride for 4 hours, test group first incubated with cell vesicles for 12 hours, FIG. 3
Method: as §1, §2, §3

[4] = test system: tumor repopulating cells MCF-7/TRC; test: uptake of doxorubicin drugs by MCF-7/TRC, two-photon confocal microscope; type: cell-based, human; conditions: 1 μg/ml doxorubicin hydrochloride for 4 hours, test group first incubated with cell vesicles for 12 hours, FIG. 3
Excerpt: as §1
5000 MCF-7 human breast cancer cells are planted in the three-dimensional fibrous protein gel, and after 5 days culturing, a stem cell-like colony is formed, these cells are referred to as tumor repopulating cells, that is, MCF-7/TRC.
as §2, §3

[5] = test system: human breast cancer cells MCF-7; test: excretion of doxorubicin drugs from MCF-7 cells, two-photon confocal microscope; type: cell-based; conditions: 1 μg/ml doxorubicin for 4 hours; test group first incubated with 5×10^5 cell vesicles for 12 hours; FIG. 2
Method: Human breast cancer cell line MCF-7 is cultured in RPMI Medium 1640, so that the cell amount reaches 2×10^7/ml; human breast cancer cell line MCF-7 is exposed to UV radiation for 60 minutes; 18 hours after UV radiation, human breast cancer cell line MCF-7 starts apoptosis, which is observed under microscope; collecting cell vesicles from the above apoptotic tumor cells by centrifugation or filtration procedure, as described in Example 1;
1×10^5 normally cultured human breast cancer cells MCF-7 are planted in a confocal dish, and then 5×10^5 cell vesicles prepared above and derived from human breast cancer cell line MCF-7 are added into the confocal dish and incubated with MCF-7 for 12 hours, and used as a test group (i.e., MCF-7 cells+MPs); 1×10^5 human breast cancer cells MCF-7 without adding the cells vesicles are used as a control group (i.e., MCF-7 cells).
The test group and the control group are washed once with PBS respectively, and then a medium containing 1 μg/ml of doxorubicin drugs is added, 4 hours later, two groups are stabilized with 4% of paraformaldehyde for 20 minutes, the excretion of doxorubicin drugs from the human breast cancer cell MCF-7 in test group and control group is observed under the Two-photon confocal microscope.

Compound	treatment effects [1]	doxorubicin drug content in the nucleus [2]	drug content in nucleus [3]	drug content in nucleus [4]	doxorubicin drug quantity in nucleus [5]	excretion of doxorubicin drugs from MCF-7 cells [5]
CC[C@@]1(O)C(=O)OCc2c1cc1n(c2=O)Cc2cc3cc(O)ccc3nc2-1 [HCPT, hydroxycamptothecin]	weaker treatment effects	–	–	–	–	–
COc1cccc2c1C(=O)c1c(O)c3c(c(O)c1C2=O)C[C@@](O)(C(=O)CO)C[C@@H]3O[C@H]1C[C@H](N)[C@H](O)[C@H](C)O1 [doxorubicin, doxorubicin hydrochloride]	weaker treatment effects	not high	less than that in control group MCF-7	less than that in control group MCF-7	drug quantity in nucleus is not high	excrete a great number of drugs outside of the cell membrane

Source: patent US20180071339A1, “COMBINATION OF PHARMACEUTICAL PREPARATIONS FOR TUMOR CHEMOTHERAPY” (HUBEI SOUNDNY BIOTECHNOLOGY CO., LTD., priority 2015, published 2018)
